From patent publication US20050209278A1, “Piperidinyl- and piperazinyl-sulfonylmethyl hydroxamic acids and their use as protease inhibitors” (priority 2002, published 2005)
Like-named read-outs stand apart in the source and are kept apart here.

How the values were obtained:
Assay type in all cases: biochemical
MMP-13 = molecular target: T1, MMP-13 (Homo sapiens, UniProt P45452); test: MMP-13 inhibition (in vitro Ki)
T1 construct: made in house; host or cells: baculovirus / insect cells

MMP-14 = molecular target: T2, MMP-14 (Homo sapiens, UniProt P50281); test: MMP-14 inhibition (in vitro Ki)
T2 construct: The catalytic domain enzyme was expressed in E. coli inclusion bodies, solubilized in urea; made in house

MMP-9 = molecular target: T3, MMP-9 (Homo sapiens, UniProt P14780); test: MMP-9 inhibition (in vitro Ki)
T3 construct: made in house; host or cells: MMP-9-transfected HT1080 cells (spent media)
T3 sequence (P14780 107-707 limits assumed): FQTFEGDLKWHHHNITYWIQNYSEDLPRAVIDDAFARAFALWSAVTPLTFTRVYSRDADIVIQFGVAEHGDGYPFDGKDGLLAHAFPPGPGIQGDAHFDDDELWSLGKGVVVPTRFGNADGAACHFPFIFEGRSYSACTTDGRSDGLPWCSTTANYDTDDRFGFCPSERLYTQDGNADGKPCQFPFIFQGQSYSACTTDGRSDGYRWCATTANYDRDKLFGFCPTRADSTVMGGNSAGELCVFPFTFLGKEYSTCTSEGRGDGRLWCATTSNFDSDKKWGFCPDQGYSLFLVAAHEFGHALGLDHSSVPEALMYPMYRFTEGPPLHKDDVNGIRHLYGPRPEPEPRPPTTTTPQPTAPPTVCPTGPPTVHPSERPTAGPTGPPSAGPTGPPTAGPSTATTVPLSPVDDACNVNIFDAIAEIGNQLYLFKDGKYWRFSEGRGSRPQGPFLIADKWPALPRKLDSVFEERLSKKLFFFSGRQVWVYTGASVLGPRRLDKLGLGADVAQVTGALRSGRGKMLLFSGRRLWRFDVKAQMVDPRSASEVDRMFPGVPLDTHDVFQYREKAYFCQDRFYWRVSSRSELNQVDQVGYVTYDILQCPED

MMP-1 = molecular target: T4, MMP-1 (Homo sapiens, UniProt P03956); test: MMP-1 inhibition (in vitro Ki)
T4 construct: made in house; host or cells: MMP-1-transfected HT-1080 cells (spent media)
T4 sequence (P03956 100-469): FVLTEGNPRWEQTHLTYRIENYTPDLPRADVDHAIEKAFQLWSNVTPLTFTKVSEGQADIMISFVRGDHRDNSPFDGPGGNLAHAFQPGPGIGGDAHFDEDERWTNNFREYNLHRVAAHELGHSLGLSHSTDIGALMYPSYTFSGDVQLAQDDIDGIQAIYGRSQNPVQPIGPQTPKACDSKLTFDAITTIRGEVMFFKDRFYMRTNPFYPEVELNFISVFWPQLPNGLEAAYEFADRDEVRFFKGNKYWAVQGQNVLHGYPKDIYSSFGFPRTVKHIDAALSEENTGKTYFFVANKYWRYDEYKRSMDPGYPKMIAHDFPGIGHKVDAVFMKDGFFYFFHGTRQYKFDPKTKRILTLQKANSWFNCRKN

MMP-2 = molecular target: T5, MMP-2 (Homo sapiens, UniProt P08253); test: MMP-2 inhibition (in vitro Ki)
T5 construct: made in house; host or cells: MMP-2-transfected p2AHT2 cells
T5 sequence (P08253 110-660): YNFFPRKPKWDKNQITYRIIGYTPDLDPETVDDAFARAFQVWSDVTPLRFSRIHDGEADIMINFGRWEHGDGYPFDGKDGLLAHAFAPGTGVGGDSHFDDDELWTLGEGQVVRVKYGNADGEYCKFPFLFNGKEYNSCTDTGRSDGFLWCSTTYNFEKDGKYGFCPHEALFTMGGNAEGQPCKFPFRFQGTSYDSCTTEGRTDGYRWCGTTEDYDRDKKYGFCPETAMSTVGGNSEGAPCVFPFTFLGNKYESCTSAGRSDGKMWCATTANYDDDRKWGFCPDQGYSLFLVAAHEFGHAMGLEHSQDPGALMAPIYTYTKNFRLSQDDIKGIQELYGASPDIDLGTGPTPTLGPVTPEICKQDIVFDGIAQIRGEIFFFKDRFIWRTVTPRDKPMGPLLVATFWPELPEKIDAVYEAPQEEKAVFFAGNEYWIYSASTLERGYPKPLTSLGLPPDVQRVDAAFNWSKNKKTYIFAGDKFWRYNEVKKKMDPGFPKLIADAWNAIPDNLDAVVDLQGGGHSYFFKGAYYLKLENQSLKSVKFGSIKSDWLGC

[1] = Table 9, read-out: MMP-13 Ki (IC-50)
[2] = Table 9, read-out: MMP-14 Ki (IC-50)
[3] = Table 9, read-out: MMP-9 Ki (IC-50)
[4] = Table 9, read-out: MMP-1 Ki (IC-50)
[5] = Table 9, read-out: MMP-2 Ki (IC-50)

Compound	Ki (MMP-13; [1])	Ki (MMP-14; [2])	Ki (MMP-9; [3])	Ki (MMP-1; [4])	Ki (MMP-2; [5])	other results
O=C(CCCCN1CCN(S(=O)(=O)C2(C(=O)NO)CCOCC2)CC1)N1CCCCC1 [Example A119]	154 nM	> 10000 nM	> 10000 nM	> 10000 nM	> 10000 nM	
O=C(NO)C1(S(=O)(=O)N2CCC(c3ccc(C(F)(F)CCC(F)(F)F)cn3)CC2)CCOCC1 [Example A128]	0.84 nM	> 10000 nM	8.82 nM	5190 nM	3.33 nM	
O=C(NO)C1(S(=O)(=O)N2CCC(CCCCCOCC(F)(F)F)CC2)CCOCC1 [Example A35, 4-{4-[5-(2,2,2-trifluoro-ethoxy)-pentyl]-piperidine-1-sulfonyl}-tetrahydro-pyran-4-carboxylic Acid Hydroxyamide]						Ki (MMP-13; Table 8, read-out: MMP-13 Ki): 0.28 nM; Ki (MMP-14; Table 8, read-out: MMP-14 Ki): 1710 nM; Ki (MMP-9; Table 8, read-out: MMP-9 Ki): 2.68 nM; Ki (MMP-1; Table 8, read-out: MMP-1 Ki): 5290 nM; Ki (MMP-2; Table 8, read-out: MMP-2 Ki): 2.22 nM
O=C(NO)C1(S(=O)(=O)N2CCC(c3ccc(COCC(F)(F)F)cn3)CC2)CCOCC1 [Example A173]	1.91 nM	> 10000 nM	1.84 nM	> 10000 nM	7.59 nM	
O=C(/C=C/C=C/C1CCN(S(=O)(=O)C2(C(=O)NO)CCOCC2)CC1)N1CCOCC1 [Example A208]	1.94 nM	> 10000 nM	1590 nM	7360 nM	178 nM	
O=C(CCCCC1CCN(S(=O)(=O)C2(C(=O)NO)CCOCC2)CC1)Nc1ccc(OC(F)(F)F)cc1 [Example A89]	0.66 nM	8570 nM	471 nM	1030 nM	29.3 nM	
CC(C)(C(=O)NO)S(=O)(=O)N1CCC(c2ccc(CCC(F)(F)C(F)(F)F)cn2)CC1 [Example A122]	0.12 nM	2600 nM	0.27 nM	3100 nM	0.37 nM	
O=C(CCCCC1CCN(S(=O)(=O)C2(C(=O)NO)CCOCC2)CC1)N1CCCCC1 [Example A92]	2.01 nM	> 10000 nM	1100 nM	3910 nM	237 nM	
COCCC(CCOC)(C(=O)NO)S(=O)(=O)N1CCC(Oc2ccc(SC(F)(F)F)cc2)CC1 [Example B4, N-hydroxy-4-methoxy-2-(2-methoxyethyl)-2-[(4-{4-[(trifluoromethyl)thio]phenoxy}piperidin-1-yl)sulfonyl]butanamide]						Ki (MMP-13; Table 10, read-out: MMP-13 Ki): 0.45 nM; Ki (MMP-14; Table 10, read-out: MMP-14 Ki): 1640 nM; Ki (MMP-9; Table 10, read-out: MMP-9 Ki): 0.181 nM; Ki (MMP-1; Table 10, read-out: MMP-1 Ki): 2060 nM; Ki (MMP-2; Table 10, read-out: MMP-2 Ki): 0.654 nM
CCC(CC)(C(=O)NO)S(=O)(=O)N1CCC(Oc2ccc(SC(F)(F)F)cc2)CC1 [Example B2, 2-ethyl-N-hydroxy-2-[(4-{4-[(trifluoromethyl)thio]phenoxy}piperidin-1-yl)sulfonyl]butanamide]						Ki (MMP-13; Table 10, read-out: MMP-13 Ki): 1.07 nM; Ki (MMP-14; Table 10, read-out: MMP-14 Ki): 1540 nM; Ki (MMP-9; Table 10, read-out: MMP-9 Ki): 0.483 nM; Ki (MMP-1; Table 10, read-out: MMP-1 Ki): 2910 nM; Ki (MMP-2; Table 10, read-out: MMP-2 Ki): 1.21 nM
O=C(CCCCC1CCN(S(=O)(=O)C2(C(=O)NO)CCOCC2)CC1)N1CCc2ccccc21 [Example B1, (4-({4-[5-(2,3-dihydro-1H-indol-1-yl)-5-oxopentyl]piperidin-1-yl}sulfonyl)-N-hydroxytetrahydro-2H-pyran-4-carboxamide)]						Ki (MMP-13; Table 10, read-out: MMP-13 Ki): 0.229 nM; Ki (MMP-14; Table 10, read-out: MMP-14 Ki): > 10000 nM; Ki (MMP-9; Table 10, read-out: MMP-9 Ki): 380 nM; Ki (MMP-1; Table 10, read-out: MMP-1 Ki): 482 nM; Ki (MMP-2; Table 10, read-out: MMP-2 Ki): 30.7 nM
CCN1CCC(C(=O)NO)(S(=O)(=O)N2CCC(c3ccc(CCC(F)(F)C(F)(F)F)cn3)CC2)CC1 [Example A181]	0.61 nM	> 10000 nM	1.33 nM	> 10000 nM	2.36 nM	
CC1(C)O[C@H]2C[C@@](C(=O)NO)(S(=O)(=O)N3CCC(c4ccc(CCC(F)(F)C(F)(F)F)cn4)CC3)C[C@H]2O1 [Example A73]	0.09 nM	140 nM	0.16 nM	716 nM	0.22 nM	
O=C(NO)C1(S(=O)(=O)N2CCC(CCOCCCC(F)(F)F)CC2)CCOCC1 [Example A45, 4-{4-[2-(4,4,4-trifluoro-butoxy)-ethyl]-piperidine-1-sulfonyl}-tetrahydro-pyran-4-carboxylic Acid Hydroxyamide]						Ki (MMP-13; Table 8, read-out: MMP-13 Ki): 12.2 nM; Ki (MMP-14; Table 8, read-out: MMP-14 Ki): > 10000 nM; Ki (MMP-9; Table 8, read-out: MMP-9 Ki): 16.8 nM; Ki (MMP-1; Table 8, read-out: MMP-1 Ki): > 10000 nM; Ki (MMP-2; Table 8, read-out: MMP-2 Ki): 23.6 nM
O=C(NO)C1(S(=O)(=O)N2CCC(CCCc3nc(-c4ccc(OC(F)(F)F)cc4)no3)CC2)CCOCC1 [Example A160]	40.9 nM	> 10000 nM	613 nM	> 10000 nM	529 nM	
O=C(NO)C1(S(=O)(=O)N2CCC(c3cnc(OCCC4CC4)cn3)CC2)CCOCC1 [Example A67, 4-({4-[5-(2-cyclopropylethoxy)pyrazin-2-yl]piperidin-1-yl}sulfonyl)-N-hydroxytetrahydro-2H-pyran-4-carboxamide]						Ki (MMP-13; Table 8, read-out: MMP-13 Ki): 0.22 nM; Ki (MMP-14; Table 8, read-out: MMP-14 Ki): 1350 nM; Ki (MMP-9; Table 8, read-out: MMP-9 Ki): 0.07 nM; Ki (MMP-1; Table 8, read-out: MMP-1 Ki): 4450 nM; Ki (MMP-2; Table 8, read-out: MMP-2 Ki): 0.66 nM
O=C(CCCCC1CCN(S(=O)(=O)C2(C(=O)NO)CCOCC2)CC1)N1CCN(c2ccccc2)CC1 [Example A98]	0.17 nM	> 10000 nM	191 nM	1620 nM	38.2 nM	

Now from value to molecule, other results behind:

Ki (MMP-13; [1])	Ki (MMP-14; [2])	Ki (MMP-9; [3])	Ki (MMP-1; [4])	Ki (MMP-2; [5])	Compound	other results
31.8 nM	> 10000 nM	262 nM	> 10000 nM	344 nM	CN(C(=O)CCCC1CCN(S(=O)(=O)C2(C(=O)NO)CCOCC2)CC1)c1ccc(F)cc1 [Example A146]	
1.55 nM	> 10000 nM	4.01 nM	> 10000 nM	4.21 nM	O=C(NO)C1(S(=O)(=O)N2CCC(c3ccc(CCC(F)(F)C(F)(F)F)cn3)CC2)CCNCC1 [Example A170]	
2.54 nM	> 10000 nM	2.94 nM	> 10000 nM	36.5 nM	O=C(NO)C1(S(=O)(=O)N2CCC(F)(c3ccc(CCCC(F)(F)F)cn3)CC2)CCOCC1 [Example A157]	
0.23 nM	5100 nM	0.29 nM	> 10000 nM	0.65 nM	O=C(NO)C1(S(=O)(=O)N2CCC(c3ccc(CCC(F)(F)C(F)(F)F)cn3)CC2)CCN(C2CC2)CC1 [Example A204]	
2.63 nM	6550 nM	7.04 nM	> 10000 nM	4.42 nM	COCCOc1ccc(C2CCN(S(=O)(=O)C3(C(=O)NO)CCOCC3)CC2)nc1 [Example A149]	
